Literature values as cited in patent US20160331796A1, “ENRICHED AMARANTHUS BLITOIDES COMPOSITIONS AND USES THEREOF” (priority 2010, published 2016).

Tested on: prostate cancer cell lines, and primary prostate tumor lines

For Vitamin D, the “effect on invasion of prostate cancer cells” value (in vitro) is listed as “decrease invasion”, the “expression of α6 and β4 integrins” value (integrins associated with increased migration and invasion of prostate cancer cells in vitro) is listed as “decreased expression” and the “effect on proliferation and differentiation of tumor cell types” value (several tumor cell types, including prostate cancer cell lines and primary prostate tumor lines) is listed as “inhibit proliferation and promote differentiation”.
